These results are taken from patent publication US8362017B2, “C-kit modulators and methods of use” (Exelixis, Inc., priority 2003, dated 2013).

Sequence of c-Kit kinase (P10721 26-976): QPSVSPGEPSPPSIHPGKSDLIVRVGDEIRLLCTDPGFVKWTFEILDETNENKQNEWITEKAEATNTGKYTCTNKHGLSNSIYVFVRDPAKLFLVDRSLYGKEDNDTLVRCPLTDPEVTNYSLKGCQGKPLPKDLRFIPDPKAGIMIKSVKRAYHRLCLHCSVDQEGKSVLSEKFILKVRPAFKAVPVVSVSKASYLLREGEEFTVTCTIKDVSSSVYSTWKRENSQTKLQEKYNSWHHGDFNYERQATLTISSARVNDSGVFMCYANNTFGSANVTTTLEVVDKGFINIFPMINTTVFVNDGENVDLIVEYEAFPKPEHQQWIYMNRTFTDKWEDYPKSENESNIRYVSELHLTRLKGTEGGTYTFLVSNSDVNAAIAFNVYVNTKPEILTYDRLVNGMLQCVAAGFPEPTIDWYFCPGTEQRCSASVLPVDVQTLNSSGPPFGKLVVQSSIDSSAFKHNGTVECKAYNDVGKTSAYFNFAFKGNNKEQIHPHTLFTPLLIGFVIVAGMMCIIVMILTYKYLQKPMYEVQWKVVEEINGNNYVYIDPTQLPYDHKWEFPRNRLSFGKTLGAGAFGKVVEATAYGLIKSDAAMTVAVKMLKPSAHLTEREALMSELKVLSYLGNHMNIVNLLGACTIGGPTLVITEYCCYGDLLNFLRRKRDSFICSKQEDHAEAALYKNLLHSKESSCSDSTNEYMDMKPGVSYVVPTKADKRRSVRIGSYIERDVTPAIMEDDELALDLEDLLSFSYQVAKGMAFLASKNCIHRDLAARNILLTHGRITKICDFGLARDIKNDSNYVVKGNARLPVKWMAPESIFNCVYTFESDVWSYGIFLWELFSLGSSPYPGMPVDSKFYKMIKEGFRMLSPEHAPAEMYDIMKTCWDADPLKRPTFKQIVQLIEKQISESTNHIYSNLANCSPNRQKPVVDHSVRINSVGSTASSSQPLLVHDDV

The target in this assay is c-Kit kinase (Homo sapiens, UniProt P10721). As to the kind of experiment: c-Kit biochemical activity assay (AlphaScreen). As to conditions: biotinylated poly(Glu, Tyr) substrate, 1 hr at ambient temperature. How it is done:
Kinase activity and compound inhibition are investigated using one or more of the three assay formats described below. The ATP concentrations for each assay are selected to be close to the Michaelis-Menten constant (KM) for each individual kinase. Dose-response experiments are performed at 10 different inhibitor concentrations in a 384-well plate format. The data are fitted to four-parameter equation (2) below; where Y is the observed signal, X is the inhibitor concentration, Min is the background signal in the absence of enzyme (0% enzyme activity), Max is the signal in the absence of inhibitor (100% enzyme activity), IC50 is the inhibitor concentration at 50% enzyme inhibition and H represents the empirical Hill's slope to measure the cooperativity. Typically H is close to unity. Y=Min+(Max−Min)/(1+(X/IC50)^H) Equation (2) c-Kit Assay
c-Kit biochemical activity was assessed using AlphaScreen™ (Perldn Elmer) technology, described above. Test compounds, ATP, biotinylated poly(Glu, Tyr) and c-Kit kinase were combined in a volume of 20 μL in a 384-well white, medium binding microtiter plate (Greiner). Reaction mixtures were incubated for 1 hr at ambient temperature. Reactions were quenched by addition of 10 μL of 15-30 mg/mL AlphaScreen bead suspension containing 75 mM Hepes, pH 7.4, 300 mM NaCl, 120 mM EDTA, 0.3% BSA and 0.03% Tween-20. After 16 hr incubation at ambient temperature plates were read using an AlphaQuest reader (Perkin Elmer).
Background: Alpha assays give light when donor and acceptor beads are brought close together.
As to `Nc1ncc(-c2ccc(CNC(=O)Nc3ccc(Cl)c(C(F)(F)F)c3)cc2)nc1C(=O)NC1CCCNC1` (centres unmarked) [Example 242, 3-amino-6-(4-{[({[4-chloro-3-(trifluoromethyl)phenyl]amino}carbonyl)amino]methyl}phenyl)-N-piperidin-3-ylpyrazine-2-carboxamide], the 50% inhibitory concentration (IC50) (in general, the concentration that inhibits the measured activity by half) lay in the range of 50 to 500 nM.

In turn, `O=C(COc1ccc(-c2cncnc2)cc1)Nc1ccc(Cl)c(C(F)(F)F)c1` [Example 7, N-[4-chloro-3-(trifluoromethyl)phenyl]-2-[(4-pyrimidin-5-ylphenyl)oxy]acetamide] came in with an IC50 of 50 to 500 nM. With `O=C(Nc1ccc(Cl)c(C(F)(F)F)c1)OCc1ccc(-c2cn[nH]c2)cc1` [Example 267, [4-(1H-pyrazol-4-yl)phenyl]methyl [4-chloro-3-(trifluoromethyl)phenyl]carbamate] the figure was 500 to 5000 nM.

Regarding `Cc1ccc(-c2cccc(COC(=O)Nc3ccc(Cl)c(C(F)(F)F)c3)c2)c(C)n1` [Example 259, [3-(2,6-dimethylpyridin-3-yl)phenyl]methyl [4-chloro-3-(trifluoromethyl)phenyl]carbamate], the IC50 was in the range of 500 to 5000 nM. Turning to `Cc1ccc(NC(=O)OCc2cccc(-c3cccnc3)c2)cc1C` [Example 238, (3-pyridin-3-ylphenyl)methyl (3,4-dimethylphenyl)carbamate], the concentration for half-maximal inhibition (IC50) lay in the range of 50 to 500 nM. `O=C(NCc1cccc(-c2cccnc2F)c1)Nc1ccc(Cl)c(C(F)(F)F)c1` [Example 253, N-[4-chloro-3-(trifluoromethyl)phenyl]-N′-{[3-(2-fluoropyridin-3-yl)phenyl]methyl}urea] yielded a 50% inhibitory concentration (IC50) of 500 to 5000 nM.

On to `O=C(NC(=O)c1cccc(-n2cnnn2)c1)Nc1ccc(Cl)c(C(F)(F)F)c1` [Example 13, 1-(4-chloro-3-trifluoromethyl-phenyl)-3-(3-tetrazol-1-yl-benzoyl)-urea], for which the IC50 fell in the range of 500 to 5000 nM.

Consider `Cc1ccc(-n2cnnn2)cc1OCC(=O)Nc1ccc(Cl)c(C(F)(F)F)c1` [Example 18, N-[4-chloro-3-(trifluoromethyl)phenyl]-2-{[2-methyl-5-(1H-tetrazol-1-yl)phenyl]oxy}acetamide], for which the half-inhibitory concentration (IC50) was > 5000 nM. The value for `CC(C)(C)OC(=O)N1CCN(C(=O)c2nc(-c3cccc(CNC(=O)Nc4ccc(Cl)c(C(F)(F)F)c4)c3)cnc2N)CC1` [Example 243, 1,1-dimethylethyl 4-{[3-amino-6-(3-{[({[4-chloro-3-(trifluoromethyl)phenyl]amino}carbonyl)amino]methyl}phenyl)pyrazin-2-yl]carbonyl}piperazine-1-carboxylate] was 500 to 5000 nM; that for `Nc1ncc(-c2cccc(CNC(=O)Nc3ccc(Cl)c(C(F)(F)F)c3)c2)nc1C(=O)NC1CCCNC1` (centres unmarked) [Example 241, 3-amino-6-(3-{[({[4-chloro-3-(trifluoromethyl)phenyl]amino}carbonyl)amino]methyl}phenyl)-N-piperidin-3-ylpyrazine-2-carboxamide] was 50 to 500 nM. `O=C(NCc1ccc(-c2cccnc2Cl)cc1)Nc1ccc(Cl)c(C(F)(F)F)c1` [Example 252, N-{[4-(2-chloropyridin-3-yl)phenyl]methyl}-N′-[4-chloro-3-(trifluoromethyl)phenyl]urea] gave a concentration for half-maximal inhibition (IC50) of 500 to 5000 nM. In turn, `Nc1ncc(-c2cccc(CNC(=O)Nc3ccc(Cl)c(C(F)(F)F)c3)c2)nc1C(=O)N1CCNCC1` [Example 245, N-({3-[5-amino-6-(piperazin-1-ylcarbonyl)pyrazin-2-yl]phenyl}methyl)-N′-[4-chloro-3-(trifluoromethyl)phenyl]urea] displayed an IC50 of 500 to 5000 nM. Consider `O=C(NCc1ccc(-c2cn[nH]c2)cc1)Nc1ccc(Cl)c(C(F)(F)F)c1` [Example 248, N-[4-chloro-3-(trifluoromethyl)phenyl]-N′-{[4-(1H-pyrazol-4-yl)phenyl]methyl}urea], for which the IC50 was 500 to 5000 nM. For `O=C(Nc1ccc(Cl)c(C(F)(F)F)c1)OCc1ccc(-n2cnnn2)cc1` [Example 235, [4-(1H-tetrazol-1-yl)phenyl]methyl [4-chloro-3-(trifluoromethyl)phenyl]carbamate], the IC50 lay in the range of 500 to 5000 nM. In the case of `Cc1nnnn1-c1cccc(OCC(=O)Nc2ccc(Cl)c(C(F)(F)F)c2)c1` [Example 5, N-[4-chloro-3-(trifluoromethyl)phenyl]-2-{[3-(5-methyl-1H-tetrazol-1-yl)phenyl]oxy}acetamide], the IC50 fell in the range of 500 to 5000 nM. In turn, `O=C(NCc1ccc(-c2cncc3ccccc23)cc1)Nc1ccc(Cl)c(C(F)(F)F)c1` [Example 264, N-[4-chloro-3-(trifluoromethyl)phenyl]-N′-[(4-isoquinolin-4-ylphenyl)methyl]urea] displayed an IC50 of 500 to 5000 nM. `O=C(Nc1ccc(Cl)c(C(F)(F)F)c1)OCc1ccc(-c2cnc(N3CCNCC3)nc2)cc1` [Example 250, [4-(2-piperazin-1-ylpyrimidin-5-yl)phenyl]methyl [4-chloro-3-(trifluoromethyl)phenyl]carbamate] yielded an IC50 of 500 to 5000 nM. As for `O=C(Nc1cccc(C(F)(F)F)c1)OCc1cccc(-n2cnnn2)c1` [Example 255, [3-(1H-tetrazol-1-yl)phenyl]methyl [3-(trifluoromethyl)phenyl]carbamate], the concentration for half-maximal inhibition (IC50) was 50 to 500 nM. Regarding `Nc1ncc(-c2ccc(CNC(=O)Nc3ccc(Cl)c(C(F)(F)F)c3)cc2)nc1C(=O)N1CCNCC1` [Example 246, N-({4-[5-amino-6-(piperazin-1-ylcarbonyl)pyrazin-2-yl]phenyl}methyl)-N′-[4-chloro-3-(trifluoromethyl)phenyl]urea], the IC50 was 500 to 5000 nM. Regarding `O=C(Nc1ccc(Cl)c(C(F)(F)F)c1)OCc1cccc(-c2cnc(N3CCNCC3)nc2)c1` [Example 249, [3-(2-piperazin-1-ylpyrimidin-5-yl)phenyl]methyl [4-chloro-3-(trifluoromethyl)phenyl]carbamate], the IC50 lay in the range of 500 to 5000 nM.

Compound `COc1cncc(-c2cccc(COC(=O)Nc3ccc(Cl)c(C(F)(F)F)c3)c2)c1` [Example 260, {3-[5-(methyloxy)pyridin-3-yl]phenyl}methyl [4-chloro-3-(trifluoromethyl)phenyl]carbamate] registered an IC50 of 50 to 500 nM. Take `O=C(Nc1cccc(C(F)(F)F)n1)OCc1cccc(-n2cnnn2)c1` [Example 256, [3-(1H-tetrazol-1-yl)phenyl]methyl [6-(trifluoromethyl)pyridin-2-yl]carbamate]: the half-inhibitory concentration (IC50) was 500 to 5000 nM.

With `CC(C)(C)OC(=O)N1CCN(C(=O)c2nc(-c3ccc(CNC(=O)Nc4ccc(Cl)c(C(F)(F)F)c4)cc3)cnc2N)CC1` [Example 244, 1,1-dimethylethyl 4-{[3-amino-6-(4-{[({[4-chloro-3-(trifluoromethyl)phenyl]amino}carbonyl)amino]methyl}phenyl)pyrazin-2-yl]carbonyl}piperazine-1-carboxylate], the half-inhibitory concentration (IC50) fell in the range of 500 to 5000 nM. Compound `O=C(NCc1cccc(-c2cccnc2Cl)c1)Nc1ccc(Cl)c(C(F)(F)F)c1` [Example 251, N-{[3-(2-chloropyridin-3-yl)phenyl]methyl}-N′-[4-chloro-3-(trifluoromethyl)phenyl]urea] gave a 50% inhibitory concentration (IC50) of 50 to 500 nM. With `COc1ccc(Cl)cc1NC(=O)OCc1cccc(-c2cncnc2)c1` [Example 236, (3-pyrimidin-5-ylphenyl)methyl [5-chloro-2-(methyloxy)phenyl]carbamate] the figure was 500 to 5000 nM. The value for `COc1ccc(Cl)cc1NC(=O)OCc1cccc(-c2cccnc2)c1` [Example 234, (3-pyridin-3-ylphenyl)methyl [5-chloro-2-(methyloxy)phenyl]carbamate] was 500 to 5000 nM; that for `Cc1ccc(NC(=O)OCc2ccc(-c3cncnc3)cc2)cc1C` [Example 237, (4-pyrimidin-5-ylphenyl)methyl (3,4-dimethylphenyl)carbamate] was 500 to 5000 nM. On to `O=C(NCc1cccc(-c2ccc3nccnc3c2)c1)Nc1ccc(Cl)c(C(F)(F)F)c1` [Example 11, 1-(4-Chloro-3-trifluoromethyl-phenyl)-3-(3-quinoxalin-6-yl-benzyl)urea], for which the IC50 is 50 to 500 nM. `COC(=O)c1cn(-c2cccc(OCC(=O)Nc3ccc(Cl)c(C(F)(F)F)c3)c2)nn1` [Example 29, methyl 1-{3-[(2-{[4-chloro-3-(trifluoromethyl)phenyl]amino}-2-oxoethyl)oxy]phenyl}-1H-1,2,3-triazole-4-carboxylate] showed an IC50 of 500 to 5000 nM. Regarding `O=C(Nc1ccc(Cl)c(C(F)(F)F)c1)OCc1cccc(-c2cccnc2)n1` [Example 261, 2,3′-bipyridin-6-ylmethyl [4-chloro-3-(trifluoromethyl)phenyl]carbamate], the IC50 lay in the range of 500 to 5000 nM. `CC(C)(C)OC(=O)N1CCCC(NC(=O)c2nc(-c3cccc(CNC(=O)Nc4ccc(Cl)c(C(F)(F)F)c4)c3)cnc2N)C1` (centres unmarked) [Example 239, 1,1-dimethylethyl 3-({[3-amino-6-(3-{[({[4-chloro-3-(trifluoromethyl)phenyl]amino}carbonyl)amino]methyl}phenyl)pyrazin-2-yl]carbonyl}amino)piperidine-1-carboxylate]: the IC50 lay within 500 to 5000 nM.

Turning to `O=C(Nc1ccc(Cl)c(C(F)(F)F)c1)OCc1cccc(-c2cncnc2)n1` [Example 262, (6-pyrimidin-5-ylpyridin-2-yl)methyl [4-chloro-3-(trifluoromethyl)phenyl]carbamate], the IC50 is 500 to 5000 nM.
